Results published in ChEMBL document CHEMBL1136590, “Synthesis, spectral studies and screening for amoebicidal activity of new palladium(II) complexes derived from thiophene-2-carboxaldehyde thiosemicarbazones” (Bioorg Med Chem Lett, 2003).
pIC50: −log10 of the molar value.

These compounds were tested on Entamoeba histolytica (assay: In vitro amoebicidal activity against HM-1:1MMS strain of Entamoeba histolytica). Conditions: not given.
Assay type: functional, organism-based

In order of falling pIC50:
1. 3,4-Dihydro-2H-quinoline-1-carbothioic acid thiophen-2-ylmethylene-hydrazide with PdCl2 complex  5.94
2. thiophene-2-carbaldehyde N-(2,6-difluorophenyl)thiosemicarbazone with PdCl2 complex  5.62
3. thiophene-2-carbaldehyde N-(2,4-difluorophenyl)thiosemicarbazone with PdCl2 complex  5.58
4. thiophene-2-carbaldehyde N-(2-chlorobenzyl)thiosemicarbazone with PdCl2 complex  5.51
5. Di(methylsulfinyl)methane with PdCl2 complex  5.08

Same assay, conditions: Entamoeba histolytica

In order of falling pIC50:
1. Cc1ncc([N+](=O)[O-])n1CCO [METRONIDAZOLE]  5.69
2. S=C(N/N=C/c1cccs1)N1CCCc2ccccc21  5.56
3. S=C(N/N=C/c1cccs1)N1CCCC1  5.49
4. Fc1cccc(F)c1/N=C(\S)N/N=C/c1cccs1  5.24
5. S=C(NCc1ccccc1Cl)N/N=C/c1cccs1  5.24
6. Fc1ccc(/N=C(\S)N/N=C/c2cccs2)c(F)c1  5.21
